This note sets out measurements from patent US20130190169A1, “SYNERGISTIC FUNGICIDAL COMBINATION” (priority 2010, published 2013).

This assay relates to strain Mg Ref 1 of M. graminicola. Nature of the assay: In vitro evaluation of the sensitivity level of M. graminicola towards epoxiconazole and folpet alone or in admixture (mycelial growth by optical density, 96-well microtitre plate, Wadley method). In kind it is cell-based, Mycosphaerella graminicola. Conditions: Zymoseptoria tritici, 168 h, fungicide used alone, 7 days, 19° C., OD 405 nm. The protocol: The Wadley method is well-known method for determining whether synergy exists. In the Wadley method, synergistic activity is determined from dose response curves. With this method, the efficacy of the active ingredient (“a.i.”) is determined by comparing the degree of fungal attack on treated plants with that on untreated, similarly inoculated and incubated check plants. Each a.i. is generally tested at multiple (e.g., 6) concentrations, and dose response curves are generated. The dose response curves are used to establish the EC50 (i.e., the effective concentration of a.i. providing 50% disease control) of the individual compounds as well as of the combinations (EC50observed). The experimentally found values of the mixture at a given weight ratio are compared ith the values that would have been found were only a complementary efficacy of the components was present (EC50 (A+B)expected). The EC50 (A+B)expected is generally calculated according to Wadley (Levi et al., EPPO-Bulletin 16, 1986, 651-657) or (Wadley, F. M., U.S. Dep. Agric., Res. Adm., Bur. Entomol. And Plant Quar. ET-223, 1945, 8) as follows:
EC50(A+B)expected−(a+b)/[(a/EC50(A)observed)+b/EC50(B)observed)] […]
The degree of mycelial growth in the liquid medium was assessed by measuring the optical density of the wells containing the spore suspensions and fungicide concentrations. […]

Usually EC50 stands for the midpoint of the concentration-response curve. On to `Fc1ccc([C@]2(Cn3cncn3)O[C@H]2c2ccccc2Cl)cc1` (racemic) [Epoxiconazole, (2RS;3SR)-1-[3-(2-chlorophenyl)-2,3-epoxy-2-(4-fluorophenyl)propyl]-1H-1,2,4-triazole], for which the 50% effective concentration (EC50) came to 0.01 µg/mL.
For `O=C1c2ccccc2C(=O)N1SC(Cl)(Cl)Cl` [Folpet, N-(trichloromethanesulfenyl)phthalimide], the EC50 stood at 2.39 µg/mL.
